Key:
healthy subjects [1] = test: Single oral dose in healthy subjects, sedation (Example 4A); format: in vivo, human
Experimental: Forty percent of the subjects receiving the 20 mg dose (2 out of 5) and sixty percent of the subjects receiving the 10 mg dose (3 out of 5) experienced mild to moderate sedation. […]

[2] = test system: patients diagnosed with schizophrenia; test: Insomnia and somnolence reported by patients with schizophrenia, twice daily oral dosing (Example 4B); format: in vivo, human
Experimental: Forty percent of the subjects receiving the 20 mg dose (2 out of 5) and sixty percent of the subjects receiving the 10 mg dose (3 out of 5) experienced mild to moderate sedation. […] The following data were reported.

healthy subjects [3] = test: Drowsiness in healthy subjects after oral doses (Example 4C); format: in vivo, human; details: for Drowsiness, % of subjects / Drowsiness, n of subjects: n = 4; for rating of the drowsiness: oral
Excerpt: The following data were reported.

healthy subjects [4] = test: Drowsiness in healthy subjects, 3-72 mg doses (Example 4D); format: in vivo, human
Experimental: D) In healthy subjects, the COMPOUND was administered in 3 mg (n=4), 9 mg (n=4), 18 mg (n=4), 36 mg (n=4) and 72 mg (n=4) doses along with the placebo (n=5) wherein “n” is the number of subjects.

[5] = test system: anaesthetized newborn Sprague Dawley rats; test: Depression of genioglossal EMG induced by L-Tryptophan and Pargyline; format: in vivo, rat; details: for prevention of depression of the amplitude of GG inspiratory discharges by L-Trp+Prg: five newborn rats
Experimental: (§1) Intraperitoneal application of L-Tryptophan (10 mg/kg) and Pargyline (50 mg/kg) to anaesthetized newborn rats depressed the amplitude of the inspiratory discharges of the genioglossal muscle and induced obstructive apneas (OA).
(§2) Experiments were carried out on newborn Sprague Dawley rats from Iffa Credo breeding center. The animals were anaesthetized by intraperitoneal injection of low doses of sodium pentobarbitone (7-10 mg/kg), kept lying (dorsal cubitus) on a warming blanket and were spontaneously ventilating.
(§3) The EMG activity of the genioglossal muscles and the diaphragm were recorded with fine insulated wires (bipolar recordings) inserted within the muscles, filtered (100-3,000 Hz), amplified (×5-10,000) and integrated (time constant 50 ms). The rib cage movements were recorded via a captor gently touching the lower ribs and/or the abdominal wall. The air flow changes resulting from the respiratory chest movements were recorded via a facial mask and a highly sensitive pressure recorder.
Then, the animal received an intraperitoneal injection of L-Tryptophan plus Pargyline (“L-Trp+Parg”) 10 mg/kg and 50 mg/kg, respectively, and the changes in EMG amplitudes were checked every 10 minutes and were expressed as % of control values.

[6] = test system: anaesthetized newborn Sprague Dawley rats; test: Occurrence of obstructive apnea induced by L-Tryptophan and Pargyline injection; format: in vivo, rat
Experimental: as §1, §2, §3

[7] = pre-treatment 0.1 mg/kg intraperitoneal, ten newborn rats
[8] = pre-treatment 0.1 mg/kg, L-Trp+Parg 10 min later
[9] = pre-treatment 1 mg/kg, ten rats

COc1cccc([C@H](O)C2CCN(CCc3ccc(F)cc3)CC2)c1OC [COMPOUND, R-(+)-α-(2,3-Dimethoxyphenyl)-1-[2-(4-fluorophenyl)ethyl]-4-piperidinemethanol]
subjects who experienced mild to moderate sedation (healthy subjects [1]; single 10 mg oral dose): 3 out of 5 | subjects who experienced mild to moderate sedation (healthy subjects [1]; single 20 mg oral dose): 2 out of 5 | Insomnia, % of subjects ([2]; 10 mg (5 mg twice daily) oral): N = 0; 0% | Insomnia, N (number of subjects that reported the effect) ([2]; 10 mg (5 mg twice daily) oral): N = 0; 0% | Somnolence, % of subjects ([2]; 10 mg (5 mg twice daily) oral): 20% | Somnolence, N (number of subjects that reported the effect) ([2]; 10 mg (5 mg twice daily) oral): 3 | Insomnia, % of subjects ([2]; 20 mg (10 mg twice daily) oral): 21.4% | Insomnia, N (number of subjects that reported the effect) ([2]; 20 mg (10 mg twice daily) oral): N = 3: | Somnolence, % of subjects ([2]; 20 mg (10 mg twice daily) oral): 15.4% | Somnolence, N (number of subjects that reported the effect) ([2]; 20 mg (10 mg twice daily) oral): N = 1; | Insomnia, % of subjects ([2]; 40 mg (20 mg twice daily) oral): 23.1% | Insomnia, N (number of subjects that reported the effect) ([2]; 40 mg (20 mg twice daily) oral): N = 3; | Somnolence, % of subjects ([2]; 40 mg (20 mg twice daily) oral): 15.4% | Somnolence, N (number of subjects that reported the effect) ([2]; 40 mg (20 mg twice daily) oral): N = 2; | Drowsiness, % of subjects (healthy subjects [3]; 9 mg oral): 50% | Drowsiness, n of subjects (healthy subjects [3]; 9 mg oral): n = 2 | Drowsiness, % of subjects (healthy subjects [3]; 18 mg oral): 100% | Drowsiness, n of subjects (healthy subjects [3]; 18 mg oral): n = 4 | Drowsiness, % of subjects (healthy subjects [3]; 36 mg oral): 100% | Drowsiness, n of subjects (healthy subjects [3]; 36 mg oral): n = 4 | rating of the drowsiness (healthy subjects [3]; 72 mg and above): moderate to severe | Drowsiness, % of subjects (healthy subjects [3]; 72 mg oral): 75% | Drowsiness, n of subjects (healthy subjects [3]; 72 mg oral): n = 3 | Drowsiness, % of subjects (healthy subjects [3]; 108 mg oral): 100% | Drowsiness, n of subjects (healthy subjects [3]; 108 mg oral): n = 4 | Drowsiness, % of subjects (healthy subjects [3]; 138 mg oral): 100% | Drowsiness, n of subjects (healthy subjects [3]; 138 mg oral): n = 4 | rating of the drowsiness (healthy subjects [3]; doses below 72 mg): mild or moderate | drowsiness reported (healthy subjects [4]; 3 mg, 9 mg, 18 mg, 36 mg doses (n=4 each)): Only the group receiving the 72 mg dose reported drowsiness | number of subjects that reported drowsiness (healthy subjects [4]; 72 mg dose (n=4)): 3 | depression of the mean GG discharge after L-Trp+Parg injection [5, 7]: 30-50% | prevention of depression of genioglossal (GG) discharge induced by L-Trp+Parg [5, 7]: did not prevent | prevention of depression of genioglossal (GG) discharge induced by L-Trp+Parg ([5]; pre-treatment 1 mg/kg intraperitoneal, ten newborn rats): efficient in preventing the GG depression | prevention of depression of genioglossal (GG) discharge induced by L-Trp+Parg ([5]; pre-treatment 3 mg/kg intraperitoneal, ten newborn rats): confirmed the efficiency | animals that eventually died of respiratory distress [6, 8]: 4 of the 10 | newborn rats in which L-Trp+Parg injection induced OAs [6, 8]: 9 of 10 | newborn rats that did not present short lasting OAs at all ([6]; pre-treatment 1 mg/kg): Five out of ten | newborn rats which displayed OAs ([6]; pre-treatment 1 mg/kg): 5 of 10 | animals with infrequent OAs (less than 5 short lasting OAs in 60 minutes) ([6]; pre-treatment 1 mg/kg, among the 5 of 10 with OAs): 2 | peak frequency of occurrence of short lasting OAs (mean curve) ([6]; pre-treatment 1 mg/kg, between 20-40 min after the injection, significantly less than in the 0.1 mg/kg sample): 4 OAs per 10 minute period | newborn rats with long lasting OAs [6, 9]: one | survival to L-Trp+Parg injection [6, 9]: all animals survived | treated rats with a total of less than 3 short lasting OAs ([6]; pre-treatment 3 mg/kg): 3 of 10 | treated rats with frequent short lasting OAs ([6]; pre-treatment 3 mg/kg): 2 of 10 | treated rats with no short lasting OAs ([6]; pre-treatment 3 mg/kg): 5 of 10 | survival to L-Trp+Parg injection ([6]; pre-treatment 3 mg/kg, ten rats): all survived

Cn1c(=O)c2[nH]cnc2n(C)c1=O [theophylline, reference compound]
prevention of depression of the amplitude of GG inspiratory discharges by L-Trp+Prg ([5]; pre-treatment 10 mg/kg): not prevented | prevention of depression of the amplitude of GG inspiratory discharges by L-Trp+Prg ([5]; pre-treatment 30 mg/kg): not prevented | prevention of induction of OAs after L-Trp+Prg injection ([6]; pre-treatment 10 mg/kg): not prevented | prevention of induction of OAs after L-Trp+Prg injection ([6]; pre-treatment 30 mg/kg): not prevented

Source: patent US6939879B2, “Use of R (+)-α-(2,3-dimethoxyphenyl)-1-[2-(4-fluorophenyl)ethyl]-4-piperidinemethanol for the treatment of substance induced insomnia” (Aventis Pharmaceuticals Inc., priority 1998, dated 2005)
